{"source": "patent US10092537B2", "about": "“Use for PAI-1 inhibitor” (RENASCIENCE CO., LTD., priority 2013, dated 2018)", "system": "hematopoietic stem cells", "assay": "Bone-marrow transplanted mice, compound c, G-CSF and G-CSF neutralizing antibody (Experimental Example 13)", "assay_type": "in vivo", "conditions": "for G-CSF concentration in the plasma and bone-marrow fluids: 1 week after transplantation", "protocol": "Bone-marrow transplanted mice were prepared in the same manner as in Experimental Example 4, and compound c, G-CSF, and G-CSF neutralizing antibody were examined for the effects. Specifically, the bone-marrow transplanted mice were divided into 5 groups as shown below (each group: n=5) and orally administered respective test drugs.\nGroup 1: vehicle group (physiological saline was administered via gavage) (“v group”)\nGroup 2: compound c group (compound c [10 mg/kg/day] was administered via gavage) (“TM group”)\nGroup 3: G-CSF group (G-CSF [150 μg/kg/day] was administered via gavage) (“G group”)\nGroup 4: vehicle+anti-G-CSF group (physiological saline+G-CSF neutralizing antibody [500 μg/kg/day] was administered via gavage) (“v+Ab group”)\nGroup 5: compound c+anti-G-CSF group (compound c [500 μg/kg/day]+G-CSF neutralizing antibody [500 μg/kg/day] was administered via gavage) (“TM+Ab group”)\nConcurrently with bone-marrow transplantation, administration of physiological saline (vehicle) to the vehicle group via gavage was started, and the administration continued for 5 consecutive days. Concurrently with bone-marrow transplantation, administration of compound c (10 mg/kg/day) to the compound c group via gavage was started, and the administration continued for 5 consecutive days. Concurrently with bone-marrow transplantation, subcutaneous administration of G-CSF (150 μg/kg/day) to the G-CSF group was started, and the administration continued for 5 consecutive days. Concurrently with bone-marrow transplantation, gavage administration of physiological saline and subcutaneous administration of G-CSF neutralizing antibody (R&D) (500 μg/kg/day) to the vehicle+anti-G-CSF group were started, and the administration continued for 5 consecutive days. Concurrently with bone-marrow transplantation, gavage administration of compound c (10 mg/kg/day) and intraperitoneal administration of G-CSF neutralizing antibody (R&D) (500 μg/kg/day) to the compound c+anti-G-CSF group were started, and the administration continued for 5 consecutive days.\n1 week after bone-marrow transplantation, plasma and bone-marrow fluids were collected from mice of each group (v group, TM group, G group, v+Ab group, and TM+Ab group), and the G-CSF concentration (pg/ml) was measured by ELISA. The following were determined in accordance with an ordinary procedure: (B) G-CSF concentration (pg/ml) in bone-marrow fluids, (C) total number of mononucleic cells (×10E7 cell) in the bone marrow, (D) proportion (%) of LSK CD34 negative cells in the bone marrow, (E) total number of LSK CD34 negative cells in the bone marrow, (F) proportion (%) of Lin-SLAM cells in the bone marrow, and (G) total number of Lin-SLAM cells in the bone marrow.", "key": {"[1]": {"conditions": "compound c + G-CSF neutralizing antibody 500 μg/kg/day"}}}
{"smiles": "O=C(Nc1ccc(Cl)cc1C(=O)O)c1cccc(-c2ccccc2)c1", "note": "[Example 4, 2-[(biphenyl-3-ylcarbonyl)amino]-5-chlorobenzoic acid]", "values": [{"measurement": "number of BM MNC", "setting": "[1]", "value": "did not exhibit a decrease"}, {"measurement": "proportion and number of LSK-CD34 negative cells", "setting": "[1]", "value": "not decreased"}, {"measurement": "G-CSF concentration in the plasma and bone-marrow fluids", "setting": "[1]", "value": "an increase in G-CSF in neither plasma nor bone-marrow fluids"}, {"measurement": "G-CSF concentration in the plasma and bone-marrow fluids", "setting": "single agents: compound c 10 mg/kg/day gavage, G-CSF 150 μg/kg/day, G-CSF neutralizing antibody 500 μg/kg/day with vehicle, versus vehicle", "value": "significant increases"}, {"measurement": "proportion and number of LSK CD34 negative cells", "setting": "single agents: compound c 10 mg/kg/day, G-CSF 150 μg/kg/day, G-CSF neutralizing antibody 500 μg/kg/day with vehicle, versus vehicle group", "value": "increased"}, {"measurement": "number of BM MNC", "setting": "single agents: compound c 10 mg/kg/day, G-CSF 150 μg/kg/day, versus vehicle group", "value": "more increased"}]}
